Structures are written as SMILES.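 Cultured in 96-well plates, cells were exposed to test compound for 48 hours across five concentrations. GI50: concentration for 50% inhibition of growth.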 The source made the active and inactive calls. Rule as the data show it: active = GI50 up to about 1.1 µM and inactive = higher.

Some test systems named below: OVCAR-8; UACC-257; KM12; MDA-MB-231; IGROV-1; RPMI-8226; RXF 393; HCC 2998; HCT-15; 786-0; CAKI-1; PC-3; MDA-MB-435; T47D; SK-MEL-5; CCRF-CEM; SF-268; SNB-19; OVCAR-4; OVCAR-3.
What all share (experiment): inhibition of tumour cell growth, NCI panel, 48 h

On to `CO[C@@H]1C[C@H]2[C@@H]3CC[C@H]([C@H](C)COC(C)=O)[C@@]3(C)CC[C@@H]2[C@@]2(C)CC[C@H]3C[C@]312`, for which the GI50 in the assay on OVCAR-8, in the assay with UACC-257, with KM12, in the assay with MDA-MB-231, with IGROV-1 and in the assay on RPMI-8226 was > 100 µM (inactive) each time. In addition, the GI50 is > 100 µM (inactive) in the assay on RXF 393; > 100 µM (inactive) in the assay on HCC 2998; above 100 µM in the assay on HCT-15; > 100 µM (inactive) in the assay with 786-0; > 100 µM (inactive) in the assay on CAKI-1; > 100 µM (inactive) in the assay with PC-3. Besides, the GI50 with MDA-MB-435, in the assay with T47D, in the assay with SK-MEL-5, with CCRF-CEM, in the assay on SF-268 and in the assay with SNB-19 was > 100 µM (inactive) throughout. For the same compound, the GI50 in the assay with OVCAR-4 and with OVCAR-3 was > 100 µM (inactive) throughout.

`CCCCc1ccc(Nc2nc3c(ncn3COCCBr)c(=O)[nH]2)cc1`: the GI50 with OVCAR-8, in the assay with UACC-257, with KM12, with MDA-MB-231, in the assay with IGROV-1 and in the assay with RPMI-8226 was > 100 µM (inactive) throughout. The GI50 with RXF 393 was 84.5 µM (inactive); in the assay on HCC 2998, > 100 µM (inactive); in the assay on HCT-15, above 100 µM; with 786-0 it was > 100 µM (inactive); in the assay on CAKI-1, > 100 µM (inactive); with PC-3, > 100 µM (inactive). Also, the GI50 in the assay with MDA-MB-435 is > 100 µM (inactive); in the assay with T47D, 40.1 µM (inactive); with SK-MEL-5, > 100 µM (inactive); with CCRF-CEM, > 100 µM (inactive); in the assay on SF-268 it was > 100 µM (inactive); in the assay on SNB-19 it was > 100 µM (inactive). Besides, the GI50 with OVCAR-4 and with OVCAR-3 was > 100 µM (inactive) throughout.

`C=C(C)C(O)C(O)c1c(OC)ccc2ccc(=O)oc12` (stereo not given): the GI50 with OVCAR-8, in the assay with UACC-257, with KM12, in the assay on MDA-MB-231, in the assay on IGROV-1 and in the assay on RPMI-8226 was > 100 µM (inactive) throughout. In addition, the GI50 in the assay with RXF 393 was > 100 µM (inactive); in the assay with HCC 2998 it was > 100 µM (inactive); with HCT-15, above 100 µM; in the assay with 786-0, > 100 µM (inactive); with CAKI-1 it was > 100 µM (inactive); in the assay on PC-3, > 100 µM (inactive). Besides, the GI50 with MDA-MB-435, in the assay with T47D, with SK-MEL-5, with CCRF-CEM, in the assay on SF-268 and with SNB-19 was > 100 µM (inactive) throughout. In addition, the GI50 in the assay on OVCAR-4 and in the assay with OVCAR-3 was > 100 µM (inactive) in each case.

Turning to `CC1C(=O)C(C)C(c2ccccc2)N(N=O)C1c1ccccc1` (stereo not given), the GI50 with OVCAR-8 was > 91.6 µM (inactive); with UACC-257, > 548 µM (inactive); in the assay with KM12, > 439 µM (inactive); with MDA-MB-231, 85.3 µM (inactive); in the assay with IGROV-1 it was > 72.9 µM (inactive); in the assay on RPMI-8226, > 724 µM (inactive). The GI50 with RXF 393 is 36.9 µM (inactive); in the assay with HCC 2998, > 100 µM (inactive); in the assay on HCT-15, above 100 µM; with 786-0 it was 126 µM (inactive); with CAKI-1, 184 µM (inactive); in the assay on PC-3 it was 152 µM (inactive). The GI50 in the assay with MDA-MB-435 is 157 µM (inactive); in the assay on T47D it was 60.8 µM (inactive); in the assay with SK-MEL-5, > 410 µM (inactive); with CCRF-CEM, > 662 µM (inactive); in the assay on SF-268 it was 65.2 µM (inactive); in the assay on SNB-19, 64.4 µM (inactive). Moreover, the GI50 in the assay with OVCAR-4 was > 65.9 µM (inactive); in the assay with OVCAR-3, 197 µM (inactive).

As for `CC(=O)N(CN1C(=O)CCC1C(=O)O)c1ccccc1` (stereo not given), the GI50 with OVCAR-8 was > 52.4 µM (inactive); in the assay on UACC-257 it was > 54.2 µM (inactive); in the assay on KM12, > 55.3 µM (inactive); with MDA-MB-231, > 48.8 µM (inactive); in the assay with IGROV-1, > 50.4 µM (inactive); with RPMI-8226 it was > 55.2 µM (inactive). In addition, the GI50 is > 60.3 µM (inactive) in the assay on RXF 393; > 100 µM (inactive) in the assay on HCC 2998; above 100 µM with HCT-15; > 53.8 µM (inactive) with 786-0; > 57.3 µM (inactive) in the assay with CAKI-1; > 55.8 µM (inactive) in the assay with PC-3. Besides, the GI50 in the assay on MDA-MB-435 is > 100 µM (inactive); in the assay on T47D it was > 57.3 µM (inactive); with SK-MEL-5, > 58.7 µM (inactive); in the assay on CCRF-CEM, > 54.2 µM (inactive); in the assay on SF-268, > 52.4 µM (inactive); with SNB-19, > 55.1 µM (inactive). The figures for the GI50 in the assay with OVCAR-4 and in the assay with OVCAR-3 were > 100 µM (inactive) and > 54.5 µM (inactive), respectively.

Regarding `Cn1nnc2c(C(N)=O)ncn2c1=O` [TEMOZOLOMIDE], the GI50 in the assay with OVCAR-8, in the assay with UACC-257, in the assay with KM12, in the assay on MDA-MB-231, with IGROV-1 and in the assay with RPMI-8226 was > 100 µM (inactive) throughout. Also, the GI50 is > 100 µM (inactive) in the assay on RXF 393; > 100 µM (inactive) in the assay with HCC 2998; above 100 µM in the assay on HCT-15; > 100 µM (inactive) in the assay on 786-0; > 100 µM (inactive) in the assay with CAKI-1; > 100 µM (inactive) in the assay with PC-3. Also, the GI50 with MDA-MB-435 is > 100 µM (inactive); in the assay on T47D, > 100 µM (inactive); with SK-MEL-5 it was > 100 µM (inactive); in the assay with CCRF-CEM, 78.3 µM (inactive); with SF-268, > 100 µM (inactive); with SNB-19, > 100 µM (inactive). Further, the GI50 in the assay with OVCAR-4 and in the assay on OVCAR-3 was > 100 µM (inactive) each time.

As to `CCc1cccc(CC)c1NC(=S)NC(=O)c1ccc(Br)cc1`, the GI50 in the assay on OVCAR-8 was 54.5 µM (inactive); in the assay on UACC-257, 32.2 µM (inactive); in the assay with KM12, 33.8 µM (inactive); in the assay with MDA-MB-231 it was 29 µM (inactive); in the assay with IGROV-1 it was 27.9 µM (inactive); with RPMI-8226, 33.1 µM (inactive). Besides, the GI50 is 19.1 µM (inactive) with RXF 393; 33.2 µM (inactive) in the assay on HCC 2998; 33.7 µM with HCT-15; 30.1 µM (inactive) in the assay on 786-0; 29.6 µM (inactive) in the assay on CAKI-1; 24.3 µM (inactive) in the assay with PC-3. Also, the GI50 is 23 µM (inactive) with MDA-MB-435; 21.9 µM (inactive) with T47D; 26.4 µM (inactive) in the assay with SK-MEL-5; 17.7 µM (inactive) in the assay on CCRF-CEM; 45 µM (inactive) with SF-268; 40.9 µM (inactive) in the assay with SNB-19. The results for the GI50 in the assay with OVCAR-4 and in the assay with OVCAR-3 were 7.48 µM (inactive) and 36.3 µM (inactive), respectively.

In the case of `CCOC(=O)Nc1cc(NC(/C=N/NC(C)=O)C(=O)OCC)c(OC)cc1NC(C)=O` (stereo not given), the GI50 with OVCAR-8, in the assay on UACC-257, in the assay on KM12, in the assay on MDA-MB-231, in the assay with IGROV-1 and with RPMI-8226 was > 100 µM (inactive) each time. Moreover, the GI50 in the assay on RXF 393 was > 100 µM (inactive); with HCC 2998, > 100 µM (inactive); in the assay with HCT-15 it was above 100 µM; in the assay with 786-0 it was > 100 µM (inactive); in the assay with CAKI-1 it was > 100 µM (inactive); in the assay with PC-3, > 100 µM (inactive). In addition, the GI50 with MDA-MB-435, in the assay with T47D, with SK-MEL-5, with CCRF-CEM, in the assay with SF-268 and in the assay on SNB-19 was > 100 µM (inactive) in each case. For the same compound, the GI50 in the assay on OVCAR-4 and in the assay on OVCAR-3 was > 100 µM (inactive) each time.

In the case of `O=C1N[C@@H](c2c[nH]c3ccc(Br)cc23)C(=O)N[C@H]1c1c[nH]c2ccc(Br)cc12`, the GI50 in the assay with OVCAR-8 is 11.4 µM (inactive); in the assay with UACC-257 it was 12 µM (inactive); in the assay on KM12, 5.06 µM (inactive); with MDA-MB-231 it was 8.87 µM (inactive); with IGROV-1, 10.9 µM (inactive); with RPMI-8226, 7.46 µM (inactive). In addition, the GI50 in the assay on RXF 393 is 15.6 µM (inactive); in the assay on HCC 2998, 3.61 µM (inactive); in the assay with HCT-15 it was 14.9 µM; in the assay with 786-0 it was 11.5 µM (inactive); in the assay with CAKI-1, 12.8 µM (inactive); with PC-3, 3.6 µM (inactive). Moreover, the GI50 in the assay on MDA-MB-435 was 4.25 µM (inactive); in the assay with T47D it was 10.8 µM (inactive); in the assay on SK-MEL-5 it was 5.38 µM (inactive); with CCRF-CEM it was 4.11 µM (inactive); in the assay on SF-268 it was 8.15 µM (inactive); with SNB-19 it was 15.2 µM (inactive). In addition, the GI50 in the assay with OVCAR-4 is 5.73 µM (inactive); in the assay on OVCAR-3, 9.23 µM (inactive).

With `N#CC(C#N)=C(N)/C(C#N)=C/c1ccc(O)c(O)c1`, the GI50 with OVCAR-8 is 40.5 µM (inactive); in the assay on UACC-257 it was > 95.5 µM (inactive); with KM12, 69.5 µM (inactive); in the assay with MDA-MB-231, > 100 µM (inactive); in the assay with IGROV-1 it was > 55.1 µM (inactive); in the assay on RPMI-8226 it was 71.3 µM (inactive). The GI50 in the assay on RXF 393 is > 100 µM (inactive); with HCC 2998, > 100 µM (inactive); in the assay with HCT-15, 44.5 µM; with 786-0, > 91.8 µM (inactive); in the assay on CAKI-1 it was > 100 µM (inactive); in the assay on PC-3 it was 37.7 µM (inactive). In addition, the GI50 in the assay on MDA-MB-435 is 87.1 µM (inactive); in the assay on T47D, 53.7 µM (inactive); with SK-MEL-5 it was 78.9 µM (inactive); in the assay on CCRF-CEM it was 19.8 µM (inactive); with SF-268, > 83.2 µM (inactive); in the assay with SNB-19, > 92.5 µM (inactive). Besides, the GI50 was 44.8 µM (inactive) in the assay with OVCAR-4 and 37.5 µM (inactive) with OVCAR-3.

The values above are taken from ChEMBL document CHEMBL1201862, “PubChem BioAssay data set” (2004).
